Among the data in patent US10981891B2, “Antibacterial compounds and uses thereof” (priority 2016, dated 2021) are MIC values, retold here.

≈ marks a conversion by molar mass, not a printed value. Read-outs that look alike come from different tables or passages of the source.

By MIC is commonly meant the lowest concentration that inhibits growth of the organism.

The test system of this test is M. tuberculosis H37Rv (ATCC 27294). Put plainly: Microplate Alamar Blue assay (MABA), MIC against replicating M. tuberculosis H37Rv. It is filed as cell-based. The conditions noted are these: Mycobacterium tuberculosis, 168 h, read-out: M. tuberculosis MIC.
Where [1] appears, read: H37Rv, MABA, 7H12 media, 7 days at 37° C., MIC = lowest concentration reducing fluorescence by 90% relative to controls.

As to `CCOc1cc(C(c2cc3cc(Br)ccc3nc2OC)C(O)(CCN(C)C)c2cccc3ccoc23)cc(OC)n1` (stereo not drawn) [Example 22, 2-(Benzofuran-7-yl)-1-(6-bromo-2-methoxyquinolin-3-yl)-4-(dimethylamino)-1-(2-ethoxy-6-methoxypyridin-4-yl)butan-2-ol], under setting [1], the MIC was less than 0.02 µg/mL. As to `CNCCC(O)(c1cc(OC)nc(OC)c1)C(c1ccc(C)s1)c1cc2cc(C#N)ccc2nc1OC` (stereo not drawn) [Example 78, 3-(2-(2,6-Dimethoxypyridin-4-yl)-2-hydroxy-4-(methylamino)-1-(5-methylthiophen-2-yl)butyl)-2-methoxyquinoline-6-carbonitrile], the minimal inhibitory concentration (MIC) under setting [1] was 0.09 µg/mL (≈ 0.174 µM).

Consider `COc1cc(C(O)(CCN(C)C)C(c2ccccc2)c2cc3cc(I)ccc3nc2OC)cc(OC)n1` (stereo not drawn) [Example 42, 2-(2,6-Dimethoxypyridin-4-yl)-4-(dimethylamino)-1-(6-iodo-2-methoxyquinolin-3-yl)-1-phenylbutan-2-ol], for which the MIC under setting [1] was less than 0.02 µg/mL.

`COc1nc2ccc(Br)cc2cc1C(c1cccc(C)c1F)C(O)(CCN(C)C)c1cc(SC)nc(SC)c1` (stereo not drawn) [Example 55, 2-(2,6-Bis(methylthio)pyridin-4-yl)-1-(6-bromo-2-methoxyquinolin-3-yl)-4-(dimethylamino)-1-(2-fluoro-3-methylphenyl)butan-2-ol]: under setting [1], the MIC is less than 0.004 µg/mL. As for `COc1nc2ccc(Br)cc2cc1C(c1ccnc(OC)c1OC)C(O)(CCN(C)C)c1cccc(C)c1` (stereo not drawn) [Example 4, 1-(6-Bromo-2-methoxyquinolin-3-yl)-1-(2,3-dimethoxypyridin-4-yl)-4-(dimethylamino)-2-(m-tolyl)butan-2-ol], under setting [1], the MIC came to 0.02 µg/mL (≈ 0.0345 µM). Regarding `COc1nc2ccc(Br)cc2cc1C(c1ccccc1)C(O)(CCN(C)C)c1cccc2ccsc12` (stereo not drawn) [Example 15, 2-(Benzo[b]thiophen-7-yl)-1-(6-bromo-2-methoxyquinolin-3-yl)-4-(dimethylamino)-1-phenylbutan-2-ol], the minimal inhibitory concentration (MIC) was found to be 0.02 µg/mL (≈ 0.0356 µM).

Consider `COc1cc(C(O)(CCN(C)C)C(c2cc3cc(C#N)ccc3nc2OC)c2cccc(C)c2F)cc(OC(F)F)n1` (stereo not drawn) [Example 88, 3-(2-(2-(Difluoromethoxy)-6-methoxypyridin-4-yl)-4-(dimethylamino)-1-(2-fluoro-3-methylphenyl)-2-hydroxybutyl)-2-methoxyquinoline-6-carbonitrile], for which the minimal inhibitory concentration (MIC) under setting [1] worked out at 0.01 µg/mL (≈ 0.0172 µM).

Take `COc1cc(C(c2cc3cc(Br)ccc3nc2OC)C(O)(CCN(C)C)c2cccc(F)c2)cnc1OC` (stereo not drawn) [Example 3, 1-(6-Bromo-2-methoxyquinolin-3-yl)-1-(5,6-dimethoxypyridin-3-yl)-4-(dimethylamino)-2-(3-fluorophenyl)butan-2-ol]: the MIC under setting [1] stood at 0.47 µg/mL (≈ 0.804 µM). Same read-out and setting: the value for `COc1nc2ccc(Br)cc2cc1C(c1ccccc1)C(O)(CCN(C)C)c1cccc2occc12` (stereo not drawn) [Example 14, 2-(Benzofuran-4-yl)-1-(6-bromo-2-methoxyquinolin-3-yl)-4-(dimethylamino)-1-phenylbutan-2-ol] was 0.06 µg/mL (≈ 0.11 µM). Take `COc1cc(C(O)(CCN(C)C)C(c2cccc(F)c2)c2cc3cc(C#N)ccc3nc2OC)cc(OC)n1` (stereo not drawn) [Example 80, 3-(2-(2,6-Dimethoxypyridin-4-yl)-4-(dimethylamino)-1-(3-fluorophenyl)-2-hydroxybutyl)-2-methoxyquinoline-6-carbonitrile]: the minimal inhibitory concentration (MIC) under setting [1] was determined as 0.03 µg/mL (≈ 0.0565 µM). For `CNCCC(O)(c1cc(OC)nc(OC)c1)C(c1cccc(F)c1)c1cc2cc(C#N)ccc2nc1OC` (stereo not drawn) [Example 97, 3-(2-(2,6-Dimethoxypyridin-4-yl)-1-(3-fluorophenyl)-2-hydroxy-4-(methylamino)butyl)-2-methoxyquinoline-6-carbonitrile], the MIC under setting [1] was found to be 0.01 µg/mL (≈ 0.0194 µM). With `COc1nc2ccc(Br)cc2cc1C(c1ccnc(OC)c1OC)C(O)(CCN(C)C)c1ccc2occc2c1` (stereo not drawn) [Example 10, 2-(Benzofuran-5-yl)-1-(6-bromo-2-methoxyquinolin-3-yl)-1-(2,3-dimethoxypyridin-4-yl)-4-(dimethylamino)butan-2-ol], the MIC under setting [1] came to 0.03 µg/mL (≈ 0.0495 µM). In the case of `COc1nc2ccc(C#N)cc2cc1C(c1cccc2c1OCCO2)C(O)(CCN(C)C)c1cc(SC)nc(SC)c1` (stereo not drawn) [Example 90, 3-(2-(2,6-Bis(methylthio)pyridin-4-yl)-1-(2,3-dihydrobenzo[b][1,4]dioxin-5-yl)-4-(dimethylamino)-2-hydroxybutyl)-2-methoxyquinoline-6-carbonitrile], under setting [1], the MIC worked out at 0.01 µg/mL (≈ 0.0166 µM). `COc1nc2ccc(Br)cc2cc1C(c1ccccc1)C(O)(CCN(C)C)c1cccc2c1CCC2` (stereo not drawn) [Example 40, 1-(6-Bromo-2-methoxyquinolin-3-yl)-2-(2,3-dihydro-1H-inden-4-yl)-4-(dimethylamino)-1-phenylbutan-2-ol]: the minimal inhibitory concentration (MIC) was 0.07 µg/mL (≈ 0.128 µM).

On to `COc1cc(C(O)(CCN(C)C)C(c2cc3cc(Br)ccc3nc2OC)c2ccnc(OC)c2OC)cc(OC2CCC2)n1` (stereo not drawn) [Example 30, 1-(6-Bromo-2-methoxyquinolin-3-yl)-2-(2-cyclobutoxy-6-methoxypyridin-4-yl)-1-(2,3-dimethoxypyridin-4-yl)-4-(dimethylamino)butan-2-ol], for which the MIC under setting [1] was less than 0.004 µg/mL. Still for that read-out and setting: for `COc1nc2ccc(C#N)cc2cc1C(c1cccc(C)c1F)C(O)(CCN(C)C)c1cc(SC)nc(SC)c1` (stereo not drawn) [Example 89, 3-(2-(2,6-Bis(methylthio)pyridin-4-yl)-4-(dimethylamino)-1-(2-fluoro-3-methylphenyl)-2-hydroxybutyl)-2-methoxyquinoline-6-carbonitrile] the value was 0.02 µg/mL (≈ 0.0347 µM); for `COc1nc2ccc(C#N)cc2cc1C(c1cccc(F)c1)C(O)(CCN(C)C)c1cccc2ccoc12` (stereo not drawn) [Example 74, 3-(2-(Benzofuran-7-yl)-4-(dimethylamino)-1-(3-fluorophenyl)-2-hydroxybutyl)-2-methoxyquinoline-6-carbonitrile], 0.04 µg/mL (≈ 0.0785 µM). Same read-out and setting: the value for `CCOc1cc(C(O)(CCN(C)C)C(c2cc3cc(Br)ccc3nc2OC)c2ccnc(OC)c2OC)cc(OC)n1` (stereo not drawn) [Example 20, 1-(6-Bromo-2-methoxyquinolin-3-yl)-1-(2,3-dimethoxypyridin-4-yl)-4-(dimethylamino)-2-(2-ethoxy-6-methoxypyridin-4-yl)butan-2-ol] was less than 0.02 µg/mL.

In the case of `COc1cc(C(O)(CCN(C)C)C(c2cccc(C)c2)c2cc3cc(Br)ccc3nc2OC)cc(OC)n1` (stereo not drawn) [Example 1, 1-(6-Bromo-2-methoxyquinolin-3-yl)-2-(2,6-dimethoxypyridin-4-yl)-4-(dimethylamino)-1-(m-tolyl)butan-2-ol], the minimum inhibitory concentration (MIC) under setting [1] is less than 0.02 µg/mL.

Consider `CCOc1cc(C(O)(CCN(C)C)C(c2cc(OC)nc(OC)c2)c2cc3cc(Br)ccc3nc2OC)cc(OC(C)C)n1` (stereo not drawn) [Example 24, 1-(6-Bromo-2-methoxyquinolin-3-yl)-1-(2,6-dimethoxypyridin-4-yl)-4-(dimethylamino)-2-(2-ethoxy-6-isopropoxypyridin-4-yl)butan-2-ol], for which the MIC under setting [1] is less than 0.02 µg/mL.

Take `CCOc1cc(C(c2cc3cc(Br)ccc3nc2OC)C(O)(CCN(C)C)c2cccc3ccoc23)cc(OCC)n1` (stereo not drawn) [Example 12, 2-(Benzofuran-7-yl)-1-(6-bromo-2-methoxyquinolin-3-yl)-1-(2,6-diethoxypyridin-4-yl)-4-(dimethylamino)butan-2-ol]: the minimal inhibitory concentration (MIC) under setting [1] was less than 0.01 µg/mL.

As to `COc1cc(C(O)(CCN(C)C)C(c2cc3cc(Br)ccc3nc2OC)c2cccc(OC)c2F)cc(OC(C)C)n1` (stereo not drawn) [Example 16, 1-(6-Bromo-2-methoxyquinolin-3-yl)-4-(dimethylamino)-1-(2-fluoro-3-methoxyphenyl)-2-(2-isopropoxy-6-methoxypyridin-4-yl)butan-2-ol], the MIC under setting [1] is less than 0.02 µg/mL. `COc1cc(C(O)(CCN(C)C)C(c2cc3cc(Br)ccc3nc2OC)c2cccc(OC)c2F)cc(OC(F)F)n1` (stereo not drawn) [Example 49, 1-(6-Bromo-2-methoxyquinolin-3-yl)-2-(2-(difluoromethoxy)-6-methoxypyridin-4-yl)-4-(dimethylamino)-1-(2-fluoro-3-methoxyphenyl)butan-2-ol]: the minimal inhibitory concentration (MIC) under setting [1] was found to be 0.04 µg/mL (≈ 0.0615 µM). On the same count and under the same terms, for `COc1cc(C(O)(CCN(C)C)C(c2cc3cc(C#N)ccc3nc2OC)c2ccnc(OC)c2OC)cc(N(C)C)n1` (stereo not drawn) [Example 94, 3-(1-(2,3-Dimethoxypyridin-4-yl)-4-(dimethylamino)-2-(2-(dimethylamino)-6-methoxypyridin-4-yl)-2-hydroxybutyl)-2-methoxyquinoline-6-carbonitrile] the value was 0.06 µg/mL (≈ 0.102 µM); for `COc1cc(C(O)(CCN(C)C)C(c2ccc(C)s2)c2cc3cc(Br)ccc3nc2OC)cc(OC)n1` (stereo not drawn) [Example 11, 1-(6-Bromo-2-methoxyquinolin-3-yl)-2-(2,6-dimethoxypyridin-4-yl)-4-(dimethylamino)-1-(5-methylthiophen-2-yl)butan-2-ol], less than 0.02 µg/mL. Same read-out and setting: for `CCOc1cc(C(O)(CCN(C)C)C(c2cccc(C)c2)c2cc3cc(Br)ccc3nc2OC)cc(OCC)n1` (stereo not drawn) [Example 34, 1-(6-Bromo-2-methoxyquinolin-3-yl)-2-(2,6-diethoxypyridin-4-yl)-4-(dimethylamino)-1-(m-tolyl)butan-2-ol] the value was 0.04 µg/mL (≈ 0.0657 µM). As for `COc1nc2ccc(Br)cc2cc1C(c1ccccc1)C(O)(CCN(C)C)c1cccc2ccoc12` (stereo not drawn) [Example 2, 2-(Benzofuran-7-yl)-1-(6-bromo-2-methoxyquinolin-3-yl)-4-(dimethylamino)-1-phenylbutan-2-ol], the MIC under setting [1] is 0.07 µg/mL (≈ 0.128 µM). As to `COc1cc(C(O)(CCN(C)C)C(c2cc3cc(Br)ccc3nc2OC)c2ccnc(OC)c2OC)c(OC)c(OC)n1` (stereo not drawn) [Example 61, 1-(6-Bromo-2-methoxyquinolin-3-yl)-1-(2,3-dimethoxypyridin-4-yl)-4-(dimethylamino)-2-(2,3,6-trimethoxypyridin-4-yl)butan-2-ol], the MIC under setting [1] is 0.02 µg/mL (≈ 0.0304 µM). Same read-out and setting: the value for `COc1cc(C(O)(CCN(C)C)C(c2cc3cc(Br)ccc3nc2OC)c2cc(C)sc2C)cc(OC)n1` (stereo not drawn) [Example 33, 1-(6-Bromo-2-methoxyquinolin-3-yl)-2-(2,6-dimethoxypyridin-4-yl)-4-(dimethylamino)-1-(2,5-dimethylthiophen-3-yl)butan-2-ol] was less than 0.02 µg/mL. On the same count and under the same terms, the value for `CCOc1cc(C(O)(CCN(C)C)C(c2cc3cc(Cl)ccc3nc2OC)c2cccc(OC)c2F)cc(OCC)n1` (stereo not drawn) [Example 27, 1-(6-Chloro-2-methoxyquinolin-3-yl)-2-(2,6-diethoxypyridin-4-yl)-4-(dimethylamino)-1-(2-fluoro-3-methoxyphenyl)butan-2-ol] was 0.01 µg/mL (≈ 0.0167 µM).
